According to patent publication US10383925B2, “Cancer antigen EEF2” (International Institute of Cancer Immunology, Inc., priority 2009, dated 2019):
Ends that are not written are not given here.

system: CD8-positive T cells; experiment: Interferon-γ activity, T cells with peptide-pulsed HLA-A*2402 molecule-expressing T2 cells; type: cell-based; details: HLA-A*2402 molecule-expressing T2 cells pulsed with peptide, 5 hours
Procedure: T cells were incubated together with HLA-A*2402 molecule-expressing T2 cells pulsed with eEF2 peptides (eEF2409-417, eEF2412-420 and eEF2701-709 peptides) in the presence of brefeldin A (Sigma) at 37° C. for 5 hours. After washing with PBS, CD3 and CD8 molecules which are cell surface antigens were stained by PerCP-conjugated anti-CD3 (BD Biosciences) and PE-conjugated anti-CD8 (Caltag, Burlingame, Calif.) antibodies on ice for 15 minutes. Subsequently, cells were fixed using Cytofix (BD Biosciences) on ice for 20 minutes, and intracellular IFN-γ was reacted with an FITC-conjugated anti-IFN-γ antibody (BD Biosciences) on ice for 30 minutes. Frequency of IFN-γ-positive cells present in CD8-positive T cells was analyzed using a flow cytometer.

Row | Molecule | interferon-γ activity (frequency of IFN-γ-positive cells in CD8-positive T cells)
1 | RFYAFGRVF (listed as Homo sapiens) [eEF2409-417] | increase the interferon-γ activity
2 | RFDVHDVTL [eEF2701-709] | increase the interferon-γ activity
3 | AFGRVFSGL [eEF2412-420] | increase the interferon-γ activity

system: colon cancer SW480 cells; experiment: Cytotoxic activity (51Cr release) of peptide-induced CTL against endogenous eEF2 gene-expressing cells; type: cell-based; details: SW480 (HLA-A*2402 on surface) vs AZ-521 and MiaPaCa2 (no HLA-A*2402) as negative control

Row | Molecule | cytotoxic activity against endogenous eEF2 gene-expressing cells
4 | AYLPVNESF [eEF2786-794] | specifically impair the cells which express the eEF2 and have the HLA-A*2402 molecule

system: CTL from healthy donors having an HLA-A*0201 molecule; experiment: Cytotoxic activity of CTL induced by HLA-A*0201-restricted eEF2 peptides; type: cell-based, human; details: PBMC of HLA-A*0201 donors stimulated with peptide; 6th day after the final peptide stimulation
Procedure: From T cell clones established as described above, CD8-positive T cells were purified using CD8 Microbeads to prepare effector cells. Subsequently, target cells were incubated with ^51Cr-labeled sodium chromate (Amersham Biosciences Corp., NJ) for 1 hour to label the cells. They were then mixed with the effector cells so that the ratio of cell count was 1:1, 3:1 and 9:1 of CTL/target cell (E/T) ratio, and the mixture was allowed to stand for 4 hours. The percentage of cells lysed was calculated according to the following equation: Specific lysis %=[(cpm experimental release−cpm spontaneous release)/(cpm maximal release−cpm spontaneous release)]×100. T2-2402 cells pulsed with an eEF2786-794 pep tide were used as the target cells, and T2-2402 cells not pulsed with the eEF2786-794 peptide (SEQ ID NO:7) as a negative control.
The experiments were carried out in much the same way as in the above Example 3. Thus, blood was taken from healthy donors having an HLA-A*0201 molecule, peripheral blood mononuclear cells were separated, and the first stimulation was carried out using the six candidate peptides (stimulator: self-PBMC). Subsequently, the peptide stimulation on the second day and later was carried out at intervals of 8 to 13 days (stimulator: allo B-LCL 3 mg/ml). Furthermore, IL-2 was added every 2 days after the second stimulation at a final concentration of 20 IU/ml. Cytotoxicity was measured on the 6th day after the final peptide stimulation.

Row | Molecule | cytotoxic activity
5 | CC[C@H](C)[C@H](NC(=O)[C@@H]1CCCN1C(=O)[C@H](CC(=O)O)NC(=O)[C@H](CC(C)C)NC(=O)[C@H](CCSC)NC(=O)[C@@H](N)CC(C)C)C(=O)N[C@@H](Cc1ccccc1)C(=O)N[C@@H](CCCCN)C(=O)N[C@H](C(=O)O)C(C)C [eEF2292-300 2M] | increase cytotoxicity
6 | CC[C@H](C)[C@H](N)C(=O)N[C@@H](CC(C)C)C(=O)N[C@H](C(=O)N[C@@H](CC(=O)O)C(=O)N[C@H](C(=O)N[C@H](C(=O)N[C@@H](CCCCN)C(=O)NCC(=O)N[C@H](C(=O)O)C(C)C)[C@@H](C)O)[C@@H](C)CC)[C@@H](C)O [eEF2661-669] | increase of cytotoxic activity was observed
7 | CC[C@H](C)[C@H](NC(=O)[C@H](Cc1ccc(O)cc1)NC(=O)[C@H](CCSC)NC(=O)[C@H](CCSC)NC(=O)[C@@H](N)CC(C)C)C(=O)N[C@@H](CO)C(=O)N[C@@H](CCCCN)C(=O)N[C@@H](CCSC)C(=O)N[C@H](C(=O)O)C(C)C [eEF2394-402] | increase of cytotoxic activity was observed
8 | CC[C@H](C)[C@H](NC(=O)[C@H](CCC(=O)O)NC(=O)[C@H](CC(N)=O)NC(=O)[C@H](CC(C)C)NC(=O)[C@@H](N)Cc1ccc(O)cc1)C(=O)N[C@@H](CCCCN)C(=O)N[C@@H](CC(=O)O)C(=O)N[C@@H](CO)C(=O)N[C@H](C(=O)O)C(C)C [eEF2671-679] | increase of cytotoxic activity was observed
9 | CC[C@H](C)[C@H](NC(=O)[C@@H]1CCCN1C(=O)[C@H](CC(=O)O)NC(=O)[C@H](CC(C)C)NC(=O)[C@H](CC(C)C)NC(=O)[C@@H](N)CC(C)C)C(=O)N[C@@H](Cc1ccccc1)C(=O)N[C@@H](CCCCN)C(=O)N[C@@H](CC(C)C)C(=O)O [eEF2292-300 2L9L] | increase cytotoxicity
10 | CC[C@H](C)[C@H](NC(=O)[C@@H]1CCCN1C(=O)[C@H](CC(=O)O)NC(=O)[C@H](CC(C)C)NC(=O)[C@H](CC(C)C)NC(=O)[C@@H](N)CC(C)C)C(=O)N[C@@H](Cc1ccccc1)C(=O)N[C@@H](CCCCN)C(=O)N[C@H](C(=O)O)C(C)C [eEF2292-300 2L] | increase cytotoxicity
11 | CC(C)C[C@H](NC(=O)[C@H](CCC(N)=O)NC(=O)[C@H](CS)NC(=O)[C@H](Cc1ccccc1)NC(=O)[C@@H](NC(=O)[C@H](CCCNC(=N)N)NC(=O)[C@@H]1CCCN1C(=O)[C@H](CC(C)C)NC(=O)[C@@H](N)CCCCN)[C@@H](C)O)C(=O)O [eEF2284-292] | increase of cytotoxic activity was observed
12 | CC[C@H](C)[C@H](NC(=O)[C@@H]1CCCN1C(=O)[C@H](CCC(=O)O)NC(=O)[C@H](CCSC)NC(=O)[C@H](CC(C)C)NC(=O)[C@@H](N)CCCNC(=N)N)C(=O)N[C@@H](Cc1ccc(O)cc1)C(=O)N[C@@H](CC(C)C)C(=O)N[C@H](C(=O)O)C(C)C [eEF2739-747] | increase of cytotoxic activity was observed
13 | CC(C)C[C@H](NC(=O)[C@H](CCCNC(=N)N)NC(=O)[C@H](CCCCN)NC(=O)[C@H](CC(C)C)NC(=O)CNC(=O)[C@H](CCC(=O)O)NC(=O)[C@@H](NC(=O)[C@H](CC(C)C)NC(=O)[C@@H](N)CCCCN)C(C)C)C(=O)O [eEF2519-527] | increase of cytotoxic activity was observed
14 | CC[C@H](C)[C@H](NC(=O)[C@@H]1CCCN1C(=O)[C@H](CC(=O)O)NC(=O)[C@H](CC(C)C)NC(=O)[C@H](CCSC)NC(=O)[C@@H](N)CC(C)C)C(=O)N[C@@H](Cc1ccccc1)C(=O)N[C@@H](CCCCN)C(=O)N[C@@H](CC(C)C)C(=O)O [eEF2292-300 2M9L] | increase cytotoxicity

system: CD8-positive T cells of donors having the HLA-A*0206 molecule; experiment: Interferon-γ production, donors having the HLA-A*0206 molecule; type: cell-based; details: not given
Procedure: T cells were incubated together with HLA-A*0201 molecule-expressing T2 cells pulsed with HLA-A*0201-restricted eEF2 peptides in the presence of brefeldin A (Sigma) at 37° C. for 5 hours. After washing with PBS, CD3 and CD8 molecules which are cell surface antigens were stained by PerCP-conjugated anti-CD3 (BD Biosciences) and PE-conjugated anti-CD8 (Caltag, Burlingame, Calif.) antibodies on ice for 15 minutes. Subsequently, cells were fixed using Cytofix (BD Biosciences) on ice for 20 minutes, and intracellular IFN-γ was reacted with an FITC-conjugated anti-IFN-γ antibody (BD Biosciences) on ice for 30 minutes. Frequency of IFN-γ-positive cells present in CD8-positive T cells was analyzed using a flow cytometer.
Next, evaluation was carried out as to whether the above 6 peptides and the eEF2292-300 peptide (SEQ ID NO:14) can bind to an HLA-A*0206 molecule and produce interferon-γ. The experiments were carried out in the same way as in the above method, except that donors having the HLA-A*0206 molecule were used.

Row | Molecule | production of interferon-γ
15 | LILDPIFKV (listed as Homo sapiens) [eEF2292-300] | also serve as an HLA-A*0206-restricted peptide
